From ChEMBL document CHEMBL1201862, “PubChem BioAssay data set” (2004)
Blank lines part the entries; values can stand above or below the molecule they belong to. Activity calls are given as the source filed them.

Experiments:
INS1 = experiment: INS-1E survival protection against cytokine death – cell-based, luminescence, retest, dose response (AID 449756); format: functional; conditions: Rattus norvegicus;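 note: cell death triggered by IL-1 beta plus TNF-alpha plus IFN-gamma mixture; protective hits raise ATP signal compared with cytokine alone wells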
[1] = biological target: Potassium voltage-gated channel subfamily KQT member 2 (Rattus norvegicus, UniProt O88943); experiment: blockers of KCNQ2 channel current – cell-based, automated electrophysiology, set II, rat KCNQ2, dose response (AID 588637); format: functional
Chain of Potassium voltage-gated channel subfamily KQT member 2 (O88943 whole entry, the tested form may be a part): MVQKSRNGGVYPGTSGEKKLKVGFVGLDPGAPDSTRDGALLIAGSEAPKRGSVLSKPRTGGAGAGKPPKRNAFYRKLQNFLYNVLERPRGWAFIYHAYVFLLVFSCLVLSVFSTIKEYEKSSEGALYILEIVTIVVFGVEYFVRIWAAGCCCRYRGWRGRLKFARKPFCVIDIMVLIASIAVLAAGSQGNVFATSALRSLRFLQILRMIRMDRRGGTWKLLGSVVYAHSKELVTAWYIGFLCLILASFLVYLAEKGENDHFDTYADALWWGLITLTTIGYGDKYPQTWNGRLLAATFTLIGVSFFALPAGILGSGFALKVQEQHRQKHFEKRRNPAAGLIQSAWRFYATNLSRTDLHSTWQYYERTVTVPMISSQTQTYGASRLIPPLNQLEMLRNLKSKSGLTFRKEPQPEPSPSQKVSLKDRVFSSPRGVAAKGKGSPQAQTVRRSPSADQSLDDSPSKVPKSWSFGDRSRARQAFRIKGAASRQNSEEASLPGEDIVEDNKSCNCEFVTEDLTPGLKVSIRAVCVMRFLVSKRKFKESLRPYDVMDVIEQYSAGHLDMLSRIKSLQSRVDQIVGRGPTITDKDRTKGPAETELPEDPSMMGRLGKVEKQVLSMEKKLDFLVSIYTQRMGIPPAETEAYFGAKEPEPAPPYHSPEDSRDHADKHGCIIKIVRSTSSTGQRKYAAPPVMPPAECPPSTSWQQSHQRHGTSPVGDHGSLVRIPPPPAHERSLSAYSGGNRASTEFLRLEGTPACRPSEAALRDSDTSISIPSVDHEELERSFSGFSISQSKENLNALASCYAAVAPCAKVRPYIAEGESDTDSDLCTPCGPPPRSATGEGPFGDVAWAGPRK

[2] = HIV-1 AD8 envelope cell-cell fusion blockers – cherry-pick, dose response (AID 652062); format: functional, cell-based;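 note: luciferase signal from cell-cell fusion driven by HIV-1 clade B AD8 Env; potency is for inhibitors of fusion seen as a drop in luminescence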
[3] = biological target: T1, High affinity choline transporter 1 (Homo sapiens, UniProt Q9GZV3); experiment: human choline transporter blockers, potency – cell-based, 5-point CRC, membrane potential dye, dose response (AID 504840); format: functional
T1 sequence (Q9GZV3 whole entry): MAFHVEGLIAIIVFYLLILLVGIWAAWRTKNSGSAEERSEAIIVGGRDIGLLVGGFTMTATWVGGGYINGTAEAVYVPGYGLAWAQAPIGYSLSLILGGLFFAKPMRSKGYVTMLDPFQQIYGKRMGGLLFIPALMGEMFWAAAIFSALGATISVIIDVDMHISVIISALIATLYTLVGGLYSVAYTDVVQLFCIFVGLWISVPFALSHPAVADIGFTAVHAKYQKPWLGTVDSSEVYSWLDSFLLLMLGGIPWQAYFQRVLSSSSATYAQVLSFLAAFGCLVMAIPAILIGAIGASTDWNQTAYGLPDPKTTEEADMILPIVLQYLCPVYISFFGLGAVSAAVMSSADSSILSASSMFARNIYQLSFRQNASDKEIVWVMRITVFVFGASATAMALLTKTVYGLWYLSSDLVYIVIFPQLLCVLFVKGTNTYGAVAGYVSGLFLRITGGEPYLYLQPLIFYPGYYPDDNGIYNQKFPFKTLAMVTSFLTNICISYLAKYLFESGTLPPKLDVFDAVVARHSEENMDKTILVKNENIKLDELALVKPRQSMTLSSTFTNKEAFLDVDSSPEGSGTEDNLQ

[4] = biological target: T1, High affinity choline transporter 1; experiment: human choline transporter blockers, potency – cell-based, 10-point CRC, membrane potential dye, dose response (AID 588401); format: functional;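 note: membrane potential dye fluorescence of choline-evoked depolarization via CHT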
Large T antigen = Large T antigen (Simian virus 40, UniProt P03070); format: functional, Betapolyomavirus macacae;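 note: Confirmatory-stage PubChem screen for compounds that inhibit SV40 T antigen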
Chain of Large T antigen (P03070 whole entry): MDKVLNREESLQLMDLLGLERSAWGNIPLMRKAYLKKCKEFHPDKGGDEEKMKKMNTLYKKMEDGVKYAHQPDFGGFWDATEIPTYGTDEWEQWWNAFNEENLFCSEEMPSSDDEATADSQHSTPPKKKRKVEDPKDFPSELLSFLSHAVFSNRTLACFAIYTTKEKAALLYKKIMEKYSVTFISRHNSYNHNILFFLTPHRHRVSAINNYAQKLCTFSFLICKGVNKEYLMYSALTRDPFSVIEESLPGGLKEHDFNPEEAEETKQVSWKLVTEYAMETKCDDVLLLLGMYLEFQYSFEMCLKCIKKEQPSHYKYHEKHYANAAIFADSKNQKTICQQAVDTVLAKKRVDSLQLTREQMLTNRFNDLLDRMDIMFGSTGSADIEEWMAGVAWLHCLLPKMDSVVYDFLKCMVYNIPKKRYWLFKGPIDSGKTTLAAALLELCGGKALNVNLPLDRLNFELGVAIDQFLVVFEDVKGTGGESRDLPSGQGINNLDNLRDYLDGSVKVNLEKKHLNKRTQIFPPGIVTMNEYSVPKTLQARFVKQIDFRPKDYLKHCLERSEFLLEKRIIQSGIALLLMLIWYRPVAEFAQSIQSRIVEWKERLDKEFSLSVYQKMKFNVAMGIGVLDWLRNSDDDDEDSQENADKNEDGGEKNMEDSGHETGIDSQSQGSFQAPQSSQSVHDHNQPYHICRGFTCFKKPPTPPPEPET

[5] = biological target: T2, DNA repair protein RAD52 homolog (Homo sapiens, UniProt P43351); format: functional, biochemical
T2 sequence (P43351 whole entry): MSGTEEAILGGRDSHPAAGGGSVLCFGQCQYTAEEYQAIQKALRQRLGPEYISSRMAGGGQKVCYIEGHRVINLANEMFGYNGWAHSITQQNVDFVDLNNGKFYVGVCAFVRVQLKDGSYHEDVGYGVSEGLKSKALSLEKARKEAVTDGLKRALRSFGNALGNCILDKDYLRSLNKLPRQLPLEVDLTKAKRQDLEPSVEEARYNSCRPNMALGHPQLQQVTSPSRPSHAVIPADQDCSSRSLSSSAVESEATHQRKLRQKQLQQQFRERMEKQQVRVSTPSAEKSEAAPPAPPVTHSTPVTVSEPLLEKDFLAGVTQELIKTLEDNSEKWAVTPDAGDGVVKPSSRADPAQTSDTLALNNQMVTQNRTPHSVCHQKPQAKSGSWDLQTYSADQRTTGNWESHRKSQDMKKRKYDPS

Melanocortin receptor 4 = Melanocortin receptor 4 (Homo sapiens, UniProt P32245); format: functional, cell-based;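 note: Cell-based assay with luminescence read-out, confirmatory dose-response testing for agonist activity of biased ligands at MC4R; human U2OS cells with tagged receptor and beta-arrestin; potency of agonists that increase receptor coupling to beta-arrestin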
Chain of Melanocortin receptor 4 (P32245 whole entry): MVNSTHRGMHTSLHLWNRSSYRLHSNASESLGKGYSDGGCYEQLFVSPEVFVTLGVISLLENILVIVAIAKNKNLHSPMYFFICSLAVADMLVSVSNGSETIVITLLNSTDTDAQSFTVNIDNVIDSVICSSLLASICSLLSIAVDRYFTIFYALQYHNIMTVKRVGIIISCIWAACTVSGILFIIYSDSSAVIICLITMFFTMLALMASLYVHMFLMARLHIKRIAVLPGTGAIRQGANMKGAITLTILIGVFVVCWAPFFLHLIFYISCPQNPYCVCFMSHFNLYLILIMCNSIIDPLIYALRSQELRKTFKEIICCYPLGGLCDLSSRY

[6] = biological target: Heat shock protein HSP 90-alpha (Homo sapiens, UniProt P07900); format: functional, organism-based

Compound: CN1/C(=C\C(=S)NC(=O)c2cccc(Br)c2)C(C)(C)c2ccccc21
AC50 (INS1): 3.96 µM (active)
IC50 [1]: 4.27 µM (active)

Compound: Cc1cc(Cl)c(S(=O)(=O)N2CCCC2)cc1OCC(=O)NC1CCCCC1
AC50 [2]: 18.1 µM (active)
IC50 [3]: 4.68 µM (active)
IC50 [4]: 4.47 µM (active)

IC50 [3]: 8.48 µM (active)
IC50 (Large T antigen): 95.5 µM (active)
IC50 [4]: 3.81 µM (active)
Compound: CCOC(=O)c1c(N)ssc1=S

AC50 [5]: 5.29 µM (active)
EC50 (Melanocortin receptor 4): > 89.2 µM (inactive)
AC50 [6]: 9.18 µM (active)
Compound: CCCCCCCCCCCCCCCC[n+]1cccc(C(=O)N(CC)CC)c1
